According to the supplement of paper PMC10307832:

Columns and labels:
Assay in all cases: relative viability (nuclei count vs DMSO), 5 days (fraction); higher = more cells survive
[1] = compound: C/C(=N\NC(=S)N1CCC1)/C2=CC=CC=N2 + CCNC(=O)c1noc(-c2cc(C(C)C)c(O)cc2O)c1-c1ccc(CN2CCOCC2)cc1 [Luminespib] (partner 0.01 µM)
Summary of the method: (§1)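 Five library-drug doses in √10 steps were combined with a fixed anchor-drug dose, or a single drug was given alone, by pin tool to lung cancer cell lines in 1536-well plates the day after seeding. Nuclei were stained and counted after 5 days. Relative viability is the nuclei count in treated wells over that in vehicle wells, taken as the median of duplicate plates.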

[2] = compound: C/C(=N\NC(=S)N1CCC1)/C2=CC=CC=N2 + CC(C)C[C@H](NC(=O)[C@H](Cc1ccccc1)NC(=O)c1cnccn1)B(O)O [Bortezomib] (partner 0.002 µM)
Summary of the method: as §1

[3] = compound: C/C(=N\NC(=S)N1CCC1)/C2=CC=CC=N2 + Cc1nc(Nc2ncc(C(=O)Nc3c(C)cccc3Cl)s2)cc(N2CCN(CCO)CC2)n1 [Dasatinib] (partner 0.075 µM)
Summary of the method: as §1

[4] = compound: C/C(=N\NC(=S)N1CCC1)/C2=CC=CC=N2 + CC(=O)c1c(C)c2cnc(Nc3ccc(N4CCNCC4)cn3)nc2n(C2CCCC2)c1=O [Palbociclib] (partner 0.5 µM)
Summary of the method: as §1

| Cell Line | relative viability ([1]; first compound 0.05 µM) | relative viability ([1]; first compound 0.1581 µM) | relative viability ([1]; first compound 0.5 µM) | relative viability ([1]; first compound 1.581 µM) | relative viability ([1]; first compound 5 µM) | relative viability ([2]; first compound 0.05 µM) | relative viability ([2]; first compound 0.1581 µM) | relative viability ([2]; first compound 0.5 µM) | relative viability ([2]; first compound 1.581 µM) | relative viability ([2]; first compound 5 µM) | relative viability ([3]; first compound 0.05 µM) | relative viability ([3]; first compound 0.1581 µM) | relative viability ([3]; first compound 0.5 µM) | relative viability ([3]; first compound 1.581 µM) | relative viability ([3]; first compound 5 µM) | relative viability ([4]; first compound 0.05 µM) | relative viability ([4]; first compound 0.1581 µM) | relative viability ([4]; first compound 0.5 µM) | relative viability ([4]; first compound 1.581 µM) | relative viability ([4]; first compound 5 µM) |
| --- | --- | --- | --- | --- | --- | --- | --- | --- | --- | --- | --- | --- | --- | --- | --- | --- | --- | --- | --- | --- |
| NCI-H1792 | 0.23 | 0.187 | 0.176 | 0.169 | 0.157 | 0.478 | 0.5 | 0.219 | 0.16 | 0.126 | 0.483 | 0.294 | 0.256 | 0.271 | 0.196 | 0.426 | 0.398 | 0.363 | 0.272 | 0.259 |
| NCI-H1355 | 0.176 | 0.179 | 0.192 | 0.167 | 0.173 | 0.2 | 0.205 | 0.21 | 0.212 | 0.195 | 0.198 | 0.194 | 0.187 | 0.168 | 0.15 | 0.171 | 0.167 | 0.165 | 0.148 | 0.154 |
| SW 1573 | 0.0763 | 0.116 | 0.104 | 0.0921 | 0.0745 | 0.143 | 0.115 | 0.151 | 0.117 | 0.087 | 0.0654 | 0.0445 | 0.0863 | 0.0351 | 0.0432 | 0.0872 | 0.139 | 0.131 | 0.0878 | 0.0783 |
| NCI-H2347 | 0.263 | 0.238 | 0.213 | 0.251 | 0.235 | 0.299 | 0.329 | 0.401 | 0.268 | 0.263 | 0.209 | 0.199 | 0.26 | 0.23 | 0.179 | 0.323 | 0.305 | 0.282 | 0.277 | 0.29 |
| LCLC-97TM1 | 0.415 | 0.623 | 0.109 | 0.136 | 0.151 | 0.0597 | 0.0472 | 0.0458 | 0.0548 | 0.0452 | 0.163 | 0.161 | 0.143 | 0.0911 | 0.13 | 0.0948 | 0.223 | 0.0874 | 0.0867 | 0.0722 |
| EMC-BAC-2 | 0.217 | 0.225 | 0.177 | 0.19 | 0.232 | 0.104 | 0.142 | 0.149 | 0.174 | 0.16 | 0.149 | 0.169 | 0.175 | 0.129 | 0.186 | 0.274 | 0.324 | 0.261 | 0.223 | 0.253 |
| NCI-H1975 | 0.118 | 0.148 | 0.206 | 0.107 | 0.151 | 0.15 | 0.144 | 0.134 | 0.147 | 0.156 | 0.104 | 0.0967 | 0.0846 | 0.0879 | 0.0899 | 0.105 | 0.106 | 0.105 | 0.11 | 0.131 |
| BEN | 0.113 | 0.19 | 0.0969 | 0.12 | 0.0243 | 0.15 | 0.211 | 0.211 | 0.193 | 0.165 | 0.142 | 0.187 | 0.177 | 0.171 | 0.153 | 0.346 | 0.332 | 0.336 | 0.283 | 0.313 |
| NCI-H23 | 0.151 | 0.149 | 0.204 | 0.206 | 0.204 | 0.108 | 0.148 | 0.171 | 0.105 | 0.136 | 0.128 | 0.142 | 0.177 | 0.121 | 0.142 | 0.143 | 0.174 | 0.168 | 0.133 | 0.164 |
| NCI-H520 | 0.194 | 0.21 | 0.199 | 0.21 | 0.235 | 0.137 | 0.167 | 0.126 | 0.102 | 0.166 | 0.175 | 0.117 | 0.162 | 0.178 | 0.166 | 0.119 | 0.139 | 0.121 | 0.114 | 0.151 |
| CAL-12T | 0.138 | 0.147 | 0.0989 | 0.105 | 0.112 | 0.21 | 0.252 | 0.256 | 0.215 | 0.24 | 0.0937 | 0.0896 | 0.054 | 0.0962 | 0.0819 | 0.0958 | 0.145 | 0.131 | 0.109 | 0.122 |
| EPLC-272H | 0.105 | 0.105 | 0.192 | 0.203 | 0.165 | 0.116 | 0.155 | 0.133 | 0.131 | 0.116 | 0.086 | 0.079 | 0.117 | 0.0523 | 0.0578 | 0.117 | 0.138 | 0.155 | 0.056 | 0.0855 |
| LCLC-103H | 0.174 | 0.204 | 0.233 | 0.182 | 0.158 | 0.294 | 0.353 | 0.242 | 0.229 | 0.206 | 0.123 | 0.136 | 0.156 | 0.103 | 0.164 | 0.335 | 0.464 | 0.309 | 0.289 | 0.287 |
| NCI-H2405 | 0.218 | 0.245 | 0.287 | 0.242 | 0.283 | 0.275 | 0.31 | 0.322 | 0.286 | 0.989 | 0.219 | 0.226 | 0.253 | 0.228 | 0.231 | 0.217 | 0.25 | 0.26 | 0.214 | 0.21 |
| HCC-15 | 0.128 | 0.0546 | 0.119 | 0.0758 | 0.072 | 0.133 | 0.0661 | 0.0658 | 0.0754 | 0.0698 | 0.0569 | 0.0708 | 0.0679 | 0.0571 | 0.0669 | 0.184 | 0.268 | 0.114 | 0.0996 | 0.091 |
| PC-3 [JPC-3] | 0.354 | 0.415 | 0.257 | 0.232 | 0.216 | 0.377 | 0.318 | 0.312 | 0.292 | 0.215 | 0.252 | 0.281 | 0.238 | 0.235 | 0.188 | 0.328 | 0.485 | 0.409 | 0.362 | 0.373 |
| HARA | 0.124 | 0.121 | 0.0663 | 0.0648 | 0.0838 | 0.22 | 0.143 | 0.197 | 0.13 | 0.0787 | 0.0909 | 0.0673 | 0.0699 | 0.063 | 0.083 | 0.188 | 0.133 | 0.233 | 0.139 | 0.164 |
